Assay results as given in US7763273B2, “Method for reducing methane production emanating from the digestive activities of an animal” (DSM IP Assets B.V., priority 2002, dated 2010).

Test system: strained rumen fluids
Assay: In vitro incubation of sheep rumen fluid with ground diet: formation of methane and VFA
Format: cell-based
Parameters: Methane production / Total VFA: unit not given here
Settings: for Effect on the formation of VFA (in words) / Effect on the formation of methane (in words): in vitro, versus control
Method: The efficacy of some essential oil compounds obtainable from plants was tested regarding their influence on the formation of methane and VFA in an in vitro system.
According to the test 200 mg of a ground diet, containing 50% hay, 30% barley, 9.5% molasses, 10% fishmeal and 0.5% vitamins, was added to wheaton bottles. To a triplicate of bottles containing the diet, 0.6 ml of a dissolution of one of the essential oil compounds mentioned in the table below, into propylene glycol was added to each bottle.
Three sheep were fed on the ground diet and strained rumen fluids in amounts of 500 ml were mixed with 1000 ml of Colemans Simplex buffer. The buffer had the following composition.
30 ml of the combined rumen fluid and the buffer were then introduced into the bottles, and their contents were incubated under CO2 at 39° C. for 24 hours. The methane production and the total amount of VFA was then measured. […]

[1] = 0.6 ml dissolution in propylene glycol per bottle, 200 mg diet, 30 ml rumen fluid/buffer, under CO2, 39° C., 24 hours

Row | Compound | Effect on the formation of VFA (in words) | Effect on the formation of methane (in words) | Methane production [1] | Total VFA [1]
1 | c1ccc2ncccc2c1 [Quinoline] | promoting effect | methane-reducing effect | – | –
2 | Cc1ccc(C(C)C)c(O)c1 [Thymol] | notable reducing effect | strong methane-reducing effect | – | –
3 | Vanilla | promoting effect | methane-reducing effect | 1055 | 1300
